Data as given in paper PMC6820543, “Pig liver esterases PLE1 and PLE6: heterologous expression, hydrolysis of common antibiotics and pharmacological consequences” (Scientific Reports, 2019).
Values belong to the molecule of their own block, whether it stands above or below them.

Assays:
[1] = system: T1, PLE6 (pig liver esterase 6); assay: LC-MS/MS product quantification, Lineweaver-Burk; assay type: biochemical, Sus scrofa; settings: Tris-HCl 50 mM pH 7.4, 37 °C, 12.5-800 µM substrate
T1 construct: recombinant from pET-15b in E. coli Origami (DE3) with chaperone pGro7, His-tag column; cDNA 1698 bp, 566 residues with 18-residue signal peptide, about 60 kDa

[2] = substrate: CC1(C)S[C@@H]2[C@H](NC(=O)[C@H](N)c3ccc(O)cc3)C(=O)N2[C@H]1C(=O)O; assay: purified protein; settings: Tris-HCl 50 mM pH 7.4, 37 °C, 12.5-800 µM substrate, beta-lactam amide hydrolysis to amoxicilloic acid
[3] = substrate: CC1(C)S[C@@H]2[C@H](NC(=O)[C@H](N)c3ccccc3)C(=O)N2[C@H]1C(=O)O; assay: LC-MS/MS product quantification, Lineweaver-Burk; assay type: biochemical, Sus scrofa; settings: Tris-HCl 50 mM pH 7.4, 37 °C, 12.5-800 µM substrate, beta-lactam amide hydrolysis to aminobenzyl-penicilloic acid

Km ([1]; beta-lactam amide hydrolysis to amoxicilloic acid): 36.7 µM
Molecule: CC1(C)S[C@@H]2[C@H](NC(=O)[C@H](N)c3ccc(O)cc3)C(=O)N2[C@H]1C(=O)O [amoxicillin]

Km ([1]; beta-lactam amide hydrolysis to aminobenzyl-penicilloic acid): 64.2 µM
Molecule: CC1(C)S[C@@H]2[C@H](NC(=O)[C@H](N)c3ccccc3)C(=O)N2[C@H]1C(=O)O [ampicillin]

B1: PLE1 (pig liver esterase 1) (Sus scrofa) (protein)
chain: GQPASPPVVDTAQGRVLGKYVSLEGLAQPVAVFLGVPFAKPPLGSLRFAPPQPAEPWSFVKNTTSYPPMCCQDPVVEQMTSDLFTNGKERLTLEFSEDCLYLNIYTPADLTKRGRLPVMVWIHGGGLVLGGAPMYDGVVLAAHENVVVVAIQYRLGIWGFFSTGDEHSRGNWGHLDQVAALHWVQENIANFGGDPGSVTIFGESAGGESVSVLVLSPLAKNLFHRAISESGVALTVALVRKDMKAAAKQIAVLAGCKTTTSAVFVHCLRQKSEDELLDLTLKMKFLTLDFHGDQRESHPFLPTVVDGVLLPKMPEEILAEKDFNTVPYIVGINKQEFGWLLPTMMGFPLSEGKLDQKTATSLLWKSYPIANIPEELTPVATDKYLGGTDDPVKKKDLFLDLMGDVMFGVPSVTVARQHRDAGAPTYMYEFQYRPSFSSDKKPKTVIGDHGDEIFSVFGFPLLKGDAPEEEVSLSKMVMKFWANFARSGNPNGEGLPHWPMYDQEEGYLQIGVNTQAAKRLKGEEVAFWNDLLSKEAAKKPPKIKHAEL
notes: recombinant from pET-15b in E. coli Origami (DE3) with chaperone pGro7, His-tag column; cDNA 1698 bp, 566 residues with 18-residue signal peptide, about 60 kDa
Km [2]: 62.04 µM
Km [3]: 89.20 µM
